This note sets out measurements from patent US6872732B2, “Heterocyclic derivatives and medicinal use thereof” (Kyoto Pharmaceutical Industries, Ltd., priority 2001, dated 2005).

Each structure is given as a SMILES string. Read-outs that look alike come from different tables or passages of the source.

The test system of data set [1] is male KK-A^y mice. Briefly: Decrease of plasma glucose and triglyceride in KK-Ay mice. Format: in vivo. Particulars: non-fasting, 10 mg/kg/day orally for 4 consecutive days, 24 hours after final administration, vs control group. On the procedure:
The test compounds (compounds of Examples 2, 6, 8, 16, 26, 27 and 31) were suspended in 5% gum arabic solution and administered (10 mg/kg/day) orally to the administration group for 4 consecutive days from the next day. The 5% gum arabic solution was orally administered to the control group.

Data set [2] deals with male db/db mice. Conditions: for Decrease (%) in glucose level / Decrease (%) in triglyceride: plasma, 24 hours after final administration. As to the method:
Using db/db mice genetically showing high plasma glucose, hypertriglyceridemia, insulin resistance and obesity, the pharmacological activity of the test compound of Example 6 was examined.
Blood was drawn under a non-fasting state from the tail vein of male db/db mice, the glucose level and triglyceride level of the plasma were measured using commercially available assay kits (glucose CII-test WAKO and triglyceride G-test WAKO, Wako Pure Chemical Industries, Ltd.). The mice were grouped (6 mice per group) into a control group and test compound (compound of Example 6) administration groups (3 and 10 mg/kg/day), such that the mean and standard deviation of the body weight and the plasma glucose and plasma triglyceride levels in each group were nearly the same. The test compound was suspended in 0.5% methylcellulose solution and administered orally for 2 consecutive weeks from the next day. The 0.5% methylcellulose solution was orally administered to the control group. Blood was drawn under a non-fasting state from the tail vein 24 hours after the final administration and the glucose and triglyceride levels of the plasma were measured. The decrease in the plasma glucose and triglyceride levels was calculated from the following formula.

The subject of data set [3] is 6-week-old female Wistar rats. Particulars: 30 and 100 mg/kg/day orally, 2 consecutive weeks. As to the method: Using 6-week-old female Wistar rats, toxicity by repeat administration was examined.
(§1) The rats were grouped (6 rats per group) into a control group and test compound (compound of Example 6) administration groups (30 and 100 mg/kg/day), such that the mean and the standard deviation of the body weight of the rats were nearly the same. The test compound was suspended in 0.5% methylcellulose solution and administered orally for 2 consecutive weeks from the next day. The 0.5% methylcellulose solution was orally administered to the control group. The rats were fasted for 16 hr from the last day of administration, anesthetized by intraperitoneal administration of pentobarbital sodium (50 mg/kg) 24 hr after the final administration and the blood was drawn. Using EDTA-added blood, hematocrit value and erythrocyte count were measured, and using serum, AST (GOT) and ALT (GPT) were measured. In addition, the total blood volume was calculated. The white fat around the uterus, and the liver and heart were removed and wet weights thereof were measured.

For data set [4], the system named is 6-week-old male SD rats. Particulars: 30 and 100 mg/kg/day orally, 4 consecutive weeks. On the procedure:
Using 6-week-old male SD rats, toxicity by repeat administration was examined.
as §1, with “for 4” for “for 2”, “the epididymides,” for “the uterus,”

[5] abbreviates: 3 and 10 mg/kg/day orally, 2 weeks.
[6] abbreviates: 3 mg/kg/day orally for 2 consecutive weeks.
[7] abbreviates: 10 mg/kg/day orally for 2 consecutive weeks.

`CCCC#CC(=O)N1Cc2cc(OCCc3nc(-c4ccccc4)oc3C)ccc2C[C@H]1C(=O)O` [Example 8, 2-(2-hexynoyl)-7-[2-(5-methyl-2-phenyloxazol-4-yl)ethoxy]-1,2,3,4-tetrahydroisoquinoline-(3S)-carboxylic acid]: in data set [1], the “Decrease (%) in glucose level” value is listed as 46.1% and the “Decrease (%) in triglyceride” value was 55.2%.

As to `CC=CC=CC(=O)N1Cc2cc(OCCc3nc(-c4ccccc4)oc3C)ccc2C[C@H]1C(=O)O` [Example 6], in data set [2] (setting [5]), the “plasma glucose level after treatment” value is “almost the normal levels” and the “plasma triglyceride level after treatment” value is reported as “almost the normal levels”. In data set [2] (setting [6]), the “Decrease (%) in glucose level” value was 59.9% and the “Decrease (%) in triglyceride” value was determined as 77.1%. Also, in data set [2] (setting [7]), the “Decrease (%) in glucose level” value was determined as 64.4% and the “Decrease (%) in triglyceride” value was 78.8%. Also, in data set [3], the “body weight, difference from control group” value is “no significant difference”; the “erythrocyte count, difference from control group” value is “no significant difference”; the “hematocrit value, difference from control group” value was “no significant difference”; the “total blood volume, difference from control group” value is “no significant difference”. Also, in data set [3], the “weight of the heart, difference from control group” value is “no significant difference”; the “weight of the liver, difference from control group” value is “no significant difference”; the “weight of white fat around the uterus, difference from control group” value is given as “no significant difference”. Further, in data set [3] (serum), the “ALT (GPT), difference from control group” value is reported as “no significant difference” and the “AST (GOT), difference from control group” value is reported as “no significant difference”. Besides, in data set [4], the “body weight, difference from control group” value is recorded as “no significant difference”; the “erythrocyte count, difference from control group” value is reported as “no significant difference”; the “hematocrit value, difference from control group” value was “no significant difference”; the “total blood volume, difference from control group” value was “no significant difference”. Also, in data set [4], the “weight of the heart, difference from control group” value is given as “no significant difference”; the “weight of the liver, difference from control group” value was “no significant difference”; the “weight of white fat around the epididymides, difference from control group” value was “no significant difference”. Moreover, in data set [4] (serum), the “ALT (GPT), difference from control group” value is listed as “no significant difference” and the “AST (GOT), difference from control group” value is listed as “no significant difference”. Besides, in data set [1], the “Decrease (%) in glucose level” value is 45.9% and the “Decrease (%) in triglyceride” value is 45.7%.

Regarding `CC(C)(C)N.CC=CC=CC(=O)N1Cc2cc(OCCc3nc(-c4ccc(C(C)(C)C)cc4)oc3C)ccc2C[C@H]1C(=O)O` [Example 16, tert-butylamine 7-{2-[2-(4-tert-butylphenyl)-5-methyloxazol-4-yl]ethoxy}-2-(2,4-hexadienoyl)-1,2,3,4-tetrahydroisoquinoline-(3S)-carboxylate], in data set [1], the “Decrease (%) in glucose level” value was 60.9% and the “Decrease (%) in triglyceride” value is reported as 73.4%.

As for `CCCCC=CC(=O)N1Cc2cc(OCCc3nc(-c4ccccc4)oc3C)ccc2C[C@H]1C(=O)O` [Example 2, 2-(2-heptenoyl)-7-[2-(5-methyl-2-phenyloxazol-4-yl)ethoxy]-1,2,3,4-tetrahydroisoquinoline-(3S)-carboxylic acid], in data set [1], the “Decrease (%) in glucose level” value is 46.8% and the “Decrease (%) in triglyceride” value is 44.9%.

As to `CC(C)(C)N.CC=CC=CC(=O)N1Cc2cc(OCCc3nc(-c4ccc(OCc5ccccc5)cc4)oc3C)ccc2C[C@H]1C(=O)O` [Example 26, tert-butylamine 7-{2-[2-(4-benzyloxyphenyl)-5-methyloxazol-4-yl]ethoxy}-2-(2,4-hexadienoyl)-1,2,3,4-tetrahydroisoquinoline-(3S)-carboxylate], in data set [1], the “Decrease (%) in glucose level” value was found to be 43.7% and the “Decrease (%) in triglyceride” value is 67.8%.

Regarding `CC(C)(C)N.CC=CC=CC(=O)N1Cc2cc(OCCc3nc(-c4ccc(N(C)C)cc4)oc3C)ccc2C[C@H]1C(=O)O` [Example 31, tert-butylamine 7-{2-[2-(4-dimethylaminophenyl)-5-methyloxazol-4-yl]ethoxy}-2-(2,4-hexadienoyl)-1,2,3,4-tetrahydroisoquinoline-(3S)-carboxylate], in data set [1], the “Decrease (%) in glucose level” value is 39.4% and the “Decrease (%) in triglyceride” value stood at 20.1%.

For `CC(C)(C)N.CC=CC=CC(=O)N1Cc2cc(OCCc3nc(-c4ccc(C(C)C)cc4)oc3C)ccc2C[C@H]1C(=O)O` [Example 27, tert-butylamine 2-(2,4-hexadienoyl)-7-{2-[2-(4-isopropylphenyl)-5-methyloxazol-4-yl]ethoxy}-1,2,3,4-tetrahydroisoquinoline-(3S)-carboxylate], in data set [1], the “Decrease (%) in glucose level” value is reported as 55.8% and the “Decrease (%) in triglyceride” value was 73.8%.
